We go through one substance from patent US20070078111A1, “LPA2 receptor agonist inhibitors of CFTR” (priority 2005, published 2007).

One assay deals with CFTR Cl- channel. Put plainly: Short-circuit current (Isc) in polarized Calu-3 monolayers. The class given is cell-based, human. The settings on record: peptide delivered with Chariot; 25 μM LPA (20:4) 30 min; adenosine 0-20 μM; FIG. 4F. As for the experimental part:
Calu-3 and HT29-CL19A polarized cell monolayers were grown to confluency on Costar Transwell permeable supports (filter area is 0.33 cm^2). Filters were mounted in an Ussing chamber, and short-circuit currents (Isc) mediated through CFTR Cl^− channel were carried out as described previously (31). Epithelia were bathed in Ringer's solution (mM) (serosal/basolateral: 140 NaCl^−, 5 KCl, 0.36 K2HPO4, 0.44 KH2PO4, 1.3 CaCl2, 0.5 MgCk2, 4.2 NaHCO3, 10 Hepes, 10 glucose, pH 7.2, [Cl^−]=149), and low Cl-Ringer's solution (mM) (luminal/apical: 133.3 Na-gluconate, 5 K-gluconate, 2.5 NaCl, 0.36 K2HPO4, 0.44 KH2PO4, 5.7 CaCl2, 0.5 MgCl2, 4.2 NaHCO3, 10 Hepes, 10 mannitol, pH 7.2, [Cl^−]=14.8) at 37° C., gassed with 95% O2 and 5%) […] CO2. LPA (20:4) was added into both the luminal (apical) side and serosal (basolateral) side of the cell monolayers for 30 min before adenosine (ADO) was added into the luminal/apical side. […]

For a further assay, the target named is T1, NHERF2 (Homo sapiens, UniProt Q15599).
T1 construct: GST
Nature of the assay: NHERF2 binding to LPA2 in the presence of LPA2-specific peptide. The settings on record: FIG. 4H. As for the experimental part:
This assay (34) was performed using maltose binding protein (MBP)-CFTR-C tail fusion protein (1 μM) immobilized on amylose beads (20 μl) and incubated with GST-NHERF2. This step, which is called pairwise binding, was done in 200 μl of lysis buffer (PBS-0.2% Triton-X 100+protease inhibitors) and mixed at 22° C. for 2 h. The complex was washed once with the same buffer and allowed to bind Flag-tagged LPA2 from lysates of BHK cells expressing the receptor. The binding was done at 4° C. for 3 h with constant mixing. The complex was washed with lysis buffer, eluted with sample buffer, and analyzed by immunoblotting using anti-Flag monoclonal antibody.

T1 sequence (Q15599 whole entry): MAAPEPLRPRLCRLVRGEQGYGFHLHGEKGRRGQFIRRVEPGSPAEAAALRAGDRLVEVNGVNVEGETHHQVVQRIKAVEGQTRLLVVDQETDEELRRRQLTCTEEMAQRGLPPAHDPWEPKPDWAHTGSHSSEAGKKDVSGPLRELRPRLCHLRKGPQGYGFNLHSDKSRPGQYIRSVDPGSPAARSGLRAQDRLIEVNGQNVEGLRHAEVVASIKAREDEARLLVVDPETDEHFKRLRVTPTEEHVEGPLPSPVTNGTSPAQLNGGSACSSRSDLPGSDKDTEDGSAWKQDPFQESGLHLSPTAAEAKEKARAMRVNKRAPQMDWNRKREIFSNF

Regarding “LPA2-specific peptide: peptide containing the PDZ motif of LPA2 (last 11 amino acids; a.a. 341 to 351, ENGHPLMDSTL)”, in the assay with CFTR Cl- channel, the “reversal of LPA-elicited inhibition on CFTR-dependent Cl- currents (Isc)” value is on record as “significantly reversed”. The “competition with LPA2 for binding to NHERF2” value with NHERF2 is reported as “could compete with LPA2 for binding to NHERF2 in a dose-dependent manner”.
